The text below walks through data of patent publication US11773093B1, “N-(pyrimido[2,3-b]indol-7-yl)acetamide compounds as antibacterial agents” (KING FAISAL UNIVERSITY, priority 2023, dated 2023).

The subject of assay [1] is Staphylococcus epidermidis. The assay is described as follows: In vitro antibacterial activity (MIC, CLSI M07-A10 dilution). Type of assay: cell-based.
Assay [2] relates to Staphylococcus aureus ATCC 29213. The assay is described as above. Type of assay: cell-based. The settings on record: ATCC29213.
Assay [3] concerns Mycobacterium tuberculosis H37Rv strain. Nature of the assay: Anti-tubercular properties, alamar blue microplate MIC. Type of assay: cell-based. To be noted: 168 h, M. tuberculosis H37Rv, seven days incubation at 37° C., read-out: anti-mycobacterial activity (MIC). In general terms: Resazurin is reduced to fluorescent resorufin, in cell work by metabolically active cells.
Assay [4] relates to Enterococcus faecium ATCC 35667. Nature of the assay: In vitro antibacterial activity (MIC, CLSI M07-A10 dilution). It is filed as cell-based. The settings on record: ATCC35667.
Assay [5] relates to Enterococcus faecium ATCC 51559 (VRE resistant). Described as above. Type of assay: cell-based.
The subject of assay [6] is Staphylococcus aureus ATCC BAA-1556 (MERSA resistant). The description is as above. To be noted: ATCCBAA1556. Type of assay: cell-based.
In assay [7] the test system is Bacillus subtilis MTCC 441. Described as above. It is filed as cell-based. The settings on record: MTCC441.
Assay [8] concerns Escherichia coli MTCC 443. Described as above. Type of assay: cell-based. The settings on record: MTCC443.
Assay [9] has as its target T1, DNA gyrase from E. coli (Escherichia coli, UniProt P0AES4+P0AES6).
T1 construct: purchased Inspiralis
The assay is described as follows: Inhibitory activities on E. coli DNA Gyrase (Inspiralis assay). It is filed as biochemical. As for the experimental part: Inhibitory potencies were investigated utilizing the Inspiralis assay on streptavidin-coated 96-well microtiter plates. First, the plates were rehydrated with buffer (20 mM Tris-HCl with pH 7.6, 0.01% w/v BSA, 0.05% v/v Tween 20, 137 mM NaCl) and the biotinylated oligonucleotide was then immobilized. After washing off the unbound oligonucleotide, the enzyme test was performed. The reaction volume of 30 μL in buffer (35 mM Tris×HCl with pH 7.5, 4 mM MgCl2, 24 mM KCl, 2 mM DTT, 1.8 mM spermidine, 1 mM ATP, 6.5% w/v glycerol, 0.1 mg/mL albumin) contained 1.5 U of DNA gyrase from E. coli, 0.75 μg of relaxed pNO1 plasmid, and 3 μL solution of the inhibitor in 10% DMSO and 0.008% Tween 20. Reaction solutions were incubated at 37° C. for 30 min. After that, the TF buffer (50 mM NaOAc with pH 5.0, 50 mM NaCl and 50 mM MgCl2) was added to terminate the enzymatic reaction. After additional incubation for 30 min at rt, during which biotinoligonucleotide-plasmid triplex was formed, the unbound plasmid was washed off using TF buffer and SybrGOLD in T10 buffer (10 mM Tris HCl with pH 8.0 and 1 mM EDTA) was added. The fluorescence was measured with a microplate reader (BioTek Synergy H4, excitation: 485 nm, emission: 535 nm). Initial screening was done at 100 or 10 μM concentration of inhibitors. […] GraphPad Prism software was used to calculate the IC50 values. […]

Assay [10] deals with Klebsiella pneumonia MTCC 618. The assay is described as follows: In vitro antibacterial activity (MIC, CLSI M07-A10 dilution). The settings on record: Klebsiella pneumoniae, MTCC618. Type of assay: cell-based.
Assay [11] concerns Pseudomonas aeruginosa MTCC 741. The description is as above. Type of assay: cell-based. To be noted: MTCC741.

Structures are written as SMILES. In brackets after ≈: the same amount, converted by molar mass. Read-outs that look alike come from different tables or passages of the source.

T1 sequence (P0AES4 whole entry, one chain of several): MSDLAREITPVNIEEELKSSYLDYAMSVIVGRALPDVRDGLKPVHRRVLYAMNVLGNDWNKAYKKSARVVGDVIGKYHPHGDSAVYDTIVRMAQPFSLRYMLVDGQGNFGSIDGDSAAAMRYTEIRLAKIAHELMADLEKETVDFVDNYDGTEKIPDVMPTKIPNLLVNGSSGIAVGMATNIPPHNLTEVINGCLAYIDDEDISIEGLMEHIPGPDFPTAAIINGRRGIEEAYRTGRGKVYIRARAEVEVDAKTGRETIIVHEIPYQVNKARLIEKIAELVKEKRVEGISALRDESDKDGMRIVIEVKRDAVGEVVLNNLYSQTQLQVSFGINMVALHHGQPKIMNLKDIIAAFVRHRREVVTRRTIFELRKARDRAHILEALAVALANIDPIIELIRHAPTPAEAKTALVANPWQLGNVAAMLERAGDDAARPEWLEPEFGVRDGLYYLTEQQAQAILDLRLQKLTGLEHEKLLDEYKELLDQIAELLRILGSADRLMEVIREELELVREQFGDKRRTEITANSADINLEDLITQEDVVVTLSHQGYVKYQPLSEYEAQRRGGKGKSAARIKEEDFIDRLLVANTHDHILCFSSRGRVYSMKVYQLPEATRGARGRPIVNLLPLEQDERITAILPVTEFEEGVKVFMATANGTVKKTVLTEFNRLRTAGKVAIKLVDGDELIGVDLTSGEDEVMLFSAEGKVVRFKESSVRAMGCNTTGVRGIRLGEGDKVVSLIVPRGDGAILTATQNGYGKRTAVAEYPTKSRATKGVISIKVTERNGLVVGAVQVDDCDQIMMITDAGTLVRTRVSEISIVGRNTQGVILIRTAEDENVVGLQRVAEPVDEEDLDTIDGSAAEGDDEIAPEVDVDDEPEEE

Broadly, the MIC is the lowest concentration found to suppress growth. Usually IC50 stands for the concentration at which inhibition is half-maximal. Turning to `CC(=O)Nc1ccc2c(c1)[nH]c1nccc(Nc3ccc(C(=O)O)cc3)c12` [Example 8, 4-((7-acetamido-9H-pyrido[2,3-b]indol-4-yl)amino)benzoic acid], the MIC in assay [1] amounted to 0.25 µg/mL (≈ 0.694 µM); in assay [2] it was 0.25 µg/mL (≈ 0.694 µM); in assay [3] it was 8 µg/mL (≈ 22.2 µM); in [4] (Enterococcus faecium ATCC 35667, read-out: MIC), 0.5 µg/mL (≈ 1.39 µM); in assay [5] (Enterococcus faecium ATCC 51559 (VRE resistant), read-out: MIC) it was 1 µg/mL (≈ 2.77 µM); in assay [6], 4 µg/mL (≈ 11.1 µM). Also, the minimal inhibitory concentration (MIC) in assay [7] (Bacillus subtilis MTCC 441, read-out: MIC) came to 0.25 µg/mL (≈ 0.694 µM); in assay [8], 1 µg/mL (≈ 2.77 µM); in assay [10] (Klebsiella pneumonia MTCC 618, read-out: MIC), 1 µg/mL (≈ 2.77 µM); in assay [11] (Pseudomonas aeruginosa MTCC 741, read-out: MIC), 0.25 µg/mL (≈ 0.694 µM). In addition, the concentration for half-maximal inhibition (IC50) in assay [9] is 125 nM.
Turning to `CN[C@H](CC(C)C)C(=O)N[C@H]1C(=O)N[C@@H](CC(N)=O)C(=O)N[C@H]2C(=O)N[C@H]3C(=O)N[C@H](C(=O)N[C@H](C(=O)O)c4cc(O)cc(O)c4-c4cc3ccc4O)[C@H](O)c3ccc(c(Cl)c3)Oc3cc2cc(c3O[C@@H]2O[C@H](CO)[C@@H](O)[C@H](O)[C@H]2O[C@H]2C[C@](C)(N)[C@H](O)[C@H](C)O2)Oc2ccc(cc2Cl)[C@H]1O` [Vancomycin, reference compound], the MIC was 0.5 µg/mL (≈ 0.345 µM) in assay [4] (Enterococcus faecium); > 128 µg/mL in [5] (Enterococcus faecium); 0.5 µg/mL (≈ 0.345 µM) in assay [7] (Bacillus subtilis); > 128 µg/mL in assay [10]; > 128 µg/mL in assay [11] (Pseudomonas aeruginosa).
